Reference: patent US20240026314A1, “POLYPEPTIDES FOR USE IN THE SYNTHESIS OF BIOACTIVE PHENOLIC COMPOUNDS” (priority 2020, published 2024)
Read-outs that look alike come from different tables or passages of the source.

How the values were obtained:
[1] = system: colon cancer cell line SW480; settings: cited from earlier work
sarcoma S-180 = settings: cited from earlier work
[2] = system: human leukemia cell line HL60; settings: cited from earlier work
CsOMT1 = test: O-methyltransferase enzyme assay with recombinant CsOMT1; format: biochemical, Cannabis sativa; settings: compound as substrate, 1 mM, [14C]-SAM methyl donor, relative to dihydroresveratrol
CsOMT21 = test: O-methyltransferase enzyme assay with recombinant CsOMT21; format: biochemical, Cannabis sativa; settings: 1 mM substrate, [14C]-SAM, 30 min at 37° C.
CsOMT6 = test: O-methyltransferase enzyme assay with recombinant CsOMT6; format: biochemical, Cannabis sativa; settings: 1 mM substrate, [14C]-SAM, 30 min at 37° C.
[3] = substrate: Oc1ccc(CCc2cc(O)cc(O)c2)cc1; test: Enzyme kinetics (Michaelis-Menten) of recombinant CsOMT1 O-methyltransferase with dihydroresveratrol as substrate (FIG. 6C); format: biochemical, Cannabis sativa; settings: other: substrate dihydroresveratrol, standard assay conditions (50 mM Tris-HCl, pH 7.5, 5 mM MgCl2, 10% glycerol, 37° C, [14C]-SAM methyl donor), non-linear regression, Michaelis-M
Experimental: FIG. 6. Enzymatic methylation activity of CsOMT1. (A) Reaction catalyzed by CsOMT1. (B) Representative chromatogram showing the reaction products resolved by HPLC that illustrates the separation of the methylated dihydroresveratrol from its corresponding substrate (dihydroresveratrol, DHR). The identity of 3-O-methyl-dihydroresveratrol (pinobistilbene) was structurally determined by NMR. (C) Kinetic analysis of CsOMT1. Recombinant CsOMT1 was assayed under standard assay conditions at the indicated concentrations of dihydroresveratrol. Kinetic parameters were determined by non-linear regression analysis using the Michaelis-Menten kinetics model of the SigmaPlot 12.3 software.
Expression of recombinant prenyltransferases in E. coli. In typical aspects, open reading frames encoding soluble aromatic prenyltransferases from bacteria or fungi, for example NphB, HypSC, CloQ, NovQ, Fur7, or PpzP are synthesized commercially. […]
Recombinant protein expression of CsOMTs in E. coli. Open reading frames corresponding to O-methyltransferases from C. sativa are synthesized by commercially. […]
O-methyltransferase enzyme assays. […] The enzymatic products are extracted with four volumes of ethyl acetate and quantified using a scintillation counter. […] The eluted products are detected by absorption at the 210-350 nm range and quantified relative to authentic standards. […]

Q: Which apoptotic events [1] does the source give for `CC(C)=CCc1cc(/C=C/C(=O)O)cc(CC=C(C)C)c1O` [artepillin C] here?
A: induce apoptotic events

Q: And the tumor growth (sarcoma S-180; mouse, in vivo, po)?
A: significant reduction in tumor growth

Q: What about the apoptotic events [2] of the same molecule?
A: induce apoptotic events

Q: For `COc1cc(O)cc(CCc2cccc(O)c2)c1` [batatasin III], which “O-methyltransferase activity relative to that with DHR” value (CsOMT1) is on record?
A: about 25%

Q: Which apoptotic events ([1]; SW480 (Akao et al 2008)) does the source give for `CC(C)=CCc1cc(/C=C/C(=O)O)ccc1O` [drupanin] here?
A: induce apoptotic events

Q: What about the tumor growth (sarcoma S-180; oral administration, mice with sarcoma S-180 (Mishima et al 2005)) of the same molecule?
A: significant reduction in tumor growth

Q: And the apoptotic events ([2]; HL60 (Akao et al 2008))?
A: induce apoptotic events

Q: For `O=c1cc(-c2ccc(O)c(O)c2)oc2cc(O)cc(O)c12` [luteolin], which methylation of substrate (CsOMT21) is on record?
A: able to methylate

Q: Which results are given for `O=c1c(O)c(-c2ccc(O)c(O)c2)oc2cc(O)cc(O)c12` [quercetin]?
A: methylation of substrate (CsOMT6): preferred methylation; methylation of substrate (CsOMT21): able to methylate

B1: CsOMT1 (recombinant O-methyltransferase, SEQ ID NO: 7, PK03555; 6×His-tagged, expressed in E. coli) (Cannabis sativa) (protein)
chain: MEADGEDAVLRGQVEIWKYMLSFADSMALKCAVELQLADIIHSHTSPITLSQIASAIPGATSPDLSCLARIMRLLVRRRIFTQHQKPKSDGEEEEALYGPTHSSRWLLTKTNDHDQLTLAPMILMENDPRLMAPWHCFSRCVKEGGVAFKKAHNGQSIWEFGAENPEINKLFNDAMECTAKVVMKAILSHYSDGGFSDIKSMVDVGGGTGGSISEIVRSYPHIKGINFDLPHVIATAPPYSGVSHVGGDMFRSVPTADAIFMKWILHDWSDEDCVKILKNCRKAIAEESGKVIIVESVLEEESNNNNNNNEVFGDTALMLDLVMVAHTTGGKERTQKQWKTILEQGGFPRYNFIKIKALPSIIEAYPN
Q: For B1, which Km [3] is on record?
A: 22.2 ± 4.6 µM
